Data on six compounds can be found in ChEMBL document CHEMBL1134752 (Bioorg Med Chem Lett, 2001).

The target in series [1] is Prostaglandin G/H synthase 1 (Homo sapiens, UniProt P23219). The series is described as follows: In vitro inhibition of Prostaglandin G/H synthase 1 in human whole blood assay. The format is tissue-based.
In series [2] the target is T1, Prostaglandin G/H synthase 2 (Homo sapiens, UniProt P35354).
T1 sequence (P35354 whole entry): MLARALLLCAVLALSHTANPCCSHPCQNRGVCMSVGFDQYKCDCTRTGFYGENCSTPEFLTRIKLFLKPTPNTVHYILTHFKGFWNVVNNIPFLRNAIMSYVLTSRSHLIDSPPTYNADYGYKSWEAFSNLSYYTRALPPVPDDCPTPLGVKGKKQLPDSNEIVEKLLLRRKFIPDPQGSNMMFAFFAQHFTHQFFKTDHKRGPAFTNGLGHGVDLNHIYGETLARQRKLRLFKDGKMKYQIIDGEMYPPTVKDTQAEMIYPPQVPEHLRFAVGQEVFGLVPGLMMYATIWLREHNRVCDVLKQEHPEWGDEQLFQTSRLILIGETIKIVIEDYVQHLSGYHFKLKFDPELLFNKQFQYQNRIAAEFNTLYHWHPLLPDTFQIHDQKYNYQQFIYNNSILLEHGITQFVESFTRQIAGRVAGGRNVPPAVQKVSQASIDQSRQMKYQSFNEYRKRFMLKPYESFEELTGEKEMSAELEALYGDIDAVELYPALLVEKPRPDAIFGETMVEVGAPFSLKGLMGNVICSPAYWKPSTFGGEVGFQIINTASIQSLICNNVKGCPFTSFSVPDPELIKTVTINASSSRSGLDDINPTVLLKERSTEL
Put plainly: In vitro inhibition of Prostaglandin G/H synthase 2 in human whole blood assay. The format is tissue-based.

Series [3] can be described thus: Half-life in human. The format is ADME, organism-based. Conditions: in vivo.

The structures appear in SMILES notation.

Chain of Prostaglandin G/H synthase 1 (P23219 whole entry): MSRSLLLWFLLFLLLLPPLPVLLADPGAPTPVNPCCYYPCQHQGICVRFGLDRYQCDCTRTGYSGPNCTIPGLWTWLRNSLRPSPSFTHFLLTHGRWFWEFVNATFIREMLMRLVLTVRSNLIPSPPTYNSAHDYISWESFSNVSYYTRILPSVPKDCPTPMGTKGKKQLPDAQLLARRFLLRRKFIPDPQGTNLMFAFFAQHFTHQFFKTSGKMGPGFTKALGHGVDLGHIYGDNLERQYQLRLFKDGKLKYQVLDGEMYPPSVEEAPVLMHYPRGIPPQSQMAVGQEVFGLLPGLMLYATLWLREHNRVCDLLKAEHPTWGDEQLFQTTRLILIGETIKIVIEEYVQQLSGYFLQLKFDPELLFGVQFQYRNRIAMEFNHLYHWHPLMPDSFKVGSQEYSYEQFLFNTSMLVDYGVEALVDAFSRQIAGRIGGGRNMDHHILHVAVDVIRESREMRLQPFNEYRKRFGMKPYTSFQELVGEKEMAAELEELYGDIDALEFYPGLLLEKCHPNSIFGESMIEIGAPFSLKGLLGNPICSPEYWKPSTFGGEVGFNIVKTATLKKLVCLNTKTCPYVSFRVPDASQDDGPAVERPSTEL

By IC50 is commonly meant the concentration at which inhibition is half-maximal. Read a high IC50 as lower potency. As for `CS(=O)(=O)c1ccc(-c2cc(Cl)cnc2-c2ccc(CO)nc2)cc1`, the figures for the half-maximal inhibitory concentration (IC50) in series [1] and in series [2] were more than 100 µM and more than 33 µM, respectively.
As a reminder, the half-life is the time in which the quantity being followed falls by half. Read a high half-life as slow decline. For `CC(C)OC1=C(c2ccc(S(C)(=O)=O)cc2)C(C)(C)OC1=O`, the half-life in series [3] was 64 h.
Regarding `CS(=O)(=O)c1ccc(-c2cc(Cl)cnc2-c2ccc(C(=O)O)nc2)cc1`, the figures for the IC50 in series [1] and in series [2] were more than 100 µM and 21 µM, respectively.
For `CS(=O)(=O)c1ccc(-c2cc(Cl)cnc2-c2ccc(CO[C@@H]3O[C@@H](C(=O)O)[C@@H](O)[C@H](O)[C@@H]3O)nc2)cc1`, in that order: more than 100 µM and more than 33 µM.
For `Cc1ccc(-c2ncc(Cl)cc2-c2ccc(S(C)(=O)=O)cc2)c[n+]1[O-]`, in that order: more than 100 µM and 18 µM.
`Cc1ccc(-c2ncc(Cl)cc2-c2ccc(S(C)(=O)=O)cc2)cn1` [ETORICOXIB] came in with an IC50 in series [1] of more than 100 µM.
